# Laboratory results from patent publication US20190185518A9, “WARHEAD-CONTAINING PEPTIDOMIMETIC MACROCYCLES AS MODULATORS OF BFL-1” (AILERON Therapeutics, Inc., priority 2017, published 2019).
# pKi: −log10 of the molar value. Starred links: 1 amine or outer side, 2 acyl side, 3 side chain; linkers in the order of their positions; H or OH if unused. Positions of bridges follow the written chain, without caps; N, C: chain ends. Non-standard residues stand in square brackets, D forms with d. Residues, ends and D or L forms follow the SMILES beside them. Phe(4-F) = N[C@@H](Cc1ccc(F)cc1)C(=O)O; X1 = CC(C)CCC[C@H](N[*:1])C(=O)[*:2]; tBuAla = CC(C)(C)C[C@H](N)C(=O)O; R8 = C=CCCCCCC[C@@](C)(N)C(=O)O; S5 = C=CCCC[C@](C)(N)C(=O)O
# Target: Mcl-1 (Homo sapiens, UniProt Q07820)
# Test: Ki determination for Mcl-1 (BCL-2 family binding spectrum)
# Details: read-out: Ki MCL-1
# Source text: To assess the binding and affinity of compounds that antagonize the interaction between a peptide and an acceptor protein, a fluorescence polarization assay (FPA) utilizing a fluoresceinated peptidomimetic macrocycle derived from a peptidomimetic precursor sequence is used, for example. The FPA technique measures the molecular orientation and mobility using polarized light and fluorescent tracer. […] A compound that antagonizes the interaction between the fluoresceinated peptidomimetic macrocycle and an acceptor protein will be detected in a competitive binding FPA experiment.
# Antagonist binding activity is measured, for example, by fluorescence polarization on a luminescence spectrophotometer (e.g. Perkin-Elmer LS50B). Kd values may be determined by nonlinear regression analysis using, for example, Graphpad Prism software (GraphPad Software, Inc., San Diego, Calif.).
# Mcl-1, sequence (Q07820 whole entry, species assumed): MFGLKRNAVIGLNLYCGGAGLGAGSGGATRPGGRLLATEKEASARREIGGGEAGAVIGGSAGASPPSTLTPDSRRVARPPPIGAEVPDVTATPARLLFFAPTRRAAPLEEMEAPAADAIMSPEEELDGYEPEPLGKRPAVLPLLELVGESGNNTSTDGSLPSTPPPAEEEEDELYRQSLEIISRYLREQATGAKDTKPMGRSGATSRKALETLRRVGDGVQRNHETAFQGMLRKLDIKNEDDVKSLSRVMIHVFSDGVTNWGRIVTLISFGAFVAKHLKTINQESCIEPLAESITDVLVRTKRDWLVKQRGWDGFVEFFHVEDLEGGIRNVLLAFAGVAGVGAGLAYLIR
row,SMILES,pKi
1,CC[C@H](C)[C@H](NC(C)=O)C(=O)N[C@@H](Cc1c[nH]c2ccccc12)C(=O)N[C@H](C(=O)N[C@@H](C)C(=O)N[C@@H](CCC(N)=O)C(=O)N[C@@H](C)C(=O)N[C@@H](CC(C)C)C(=O)N[C@@H](CCCNC(=N)N)C(=O)N[C@]1(C)CCCCCCC=CCCC[C@@](C)(C(=O)N[C@@H](Cc2ccc(O)cc2)C(=O)N[C@@H](Cc2ccc(O)cc2)C(=O)N[C@@H](C)C(=O)N[C@@H](CCCNC(=N)N)C(=O)N[C@@H](CCCNC(=N)N)C(N)=O)NC(=O)[C@H](CC(N)=O)NC(=O)[C@H](Cc2ccccc2)NC(=O)[C@H](CCC(=O)O)NC(=O)[C@H](CC(=O)O)NC(=O)CNC(=O)[C@H]([C@@H](C)CC)NC1=O)[C@@H](C)CC [compound 1628] (Ac-IWIAQALR[R8]IGDEFN[S5]YYARR-NH2; staple 9-16),7.97
2,CC[C@H](C)[C@H](NC(C)=O)C(=O)N[C@@H](C)C(=O)N[C@H](C(=O)N[C@@H](C)C(=O)N[C@@H](CCC(N)=O)C(=O)N[C@@H](C)C(=O)N[C@@H](CC(C)C)C(=O)N[C@@H](CCCNC(=N)N)C(=O)N[C@]1(C)CCCCCCC=CCCC[C@@](C)(C(=O)N[C@@H](Cc2ccc(O)cc2)C(=O)N[C@@H](Cc2ccc(O)cc2)C(=O)N[C@@H](C)C(N)=O)NC(=O)[C@H](CC(N)=O)NC(=O)[C@H](Cc2ccccc2)NC(=O)[C@H](C)NC(=O)[C@H](CC(=O)O)NC(=O)CNC(=O)[C@H]([C@@H](C)CC)NC1=O)[C@@H](C)CC [compound 1648] (Ac-IAIAQALR[R8]IGDAFN[S5]YYA-NH2; staple 9-16),7.71
3,CC[C@H](C)[C@H](NC(C)=O)C(=O)N[C@@H](Cc1c[nH]c2ccccc12)C(=O)N[C@@H](CCCC(C)C)C(=O)N[C@@H](C)C(=O)N[C@@H](CCC(N)=O)C(=O)N[C@@H](C)C(=O)N[C@@H](CC(C)C)C(=O)N[C@@H](CCCNC(=N)N)C(=O)N[C@]1(C)CCCCCCC=CCCC[C@@](C)(C(=O)N[C@@H](Cc2ccc(O)cc2)C(=O)N[C@@H](Cc2ccc(O)cc2)C(=O)N[C@@H](C)C(N)=O)NC(=O)[C@H](CC(N)=O)NC(=O)[C@H](Cc2ccccc2)NC(=O)[C@H](C)NC(=O)[C@H](CC(=O)O)NC(=O)CNC(=O)[C@H]([C@@H](C)CC)NC1=O [compound 1678] (Ac-IW[X1]AQALR[R8]IGDAFN[S5]YYA-NH2; staple 9-16),7.67
4,CC[C@H](C)[C@H](NC(C)=O)C(=O)N[C@@H](Cc1c[nH]c2ccccc12)C(=O)N[C@H](C(=O)N[C@@H](C)C(=O)N[C@@H](CCC(N)=O)C(=O)N[C@@H](C)C(=O)N[C@@H](CC(C)C)C(=O)N[C@@H](CCCNC(=N)N)C(=O)N[C@]1(C)CCCCCC/C=C\CCC[C@@](C)(C(=O)N[C@@H](Cc2ccc(O)cc2)C(=O)N[C@@H](Cc2ccc(O)cc2)C(=O)N[C@@H](C)C(N)=O)NC(=O)[C@H](CC(N)=O)NC(=O)[C@H](Cc2ccccc2)NC(=O)[C@H](C)NC(=O)[C@H](CC(=O)O)NC(=O)CNC(=O)[C@H](CC(C)(C)C)NC1=O)[C@@H](C)CC [compound 1701] (Ac-IWIAQALR[R8][tBuAla]GDAFN[S5]YYA-NH2; staple (Z) 9-16),7.86
5,CC[C@H](C)[C@H](NC(=O)[C@H](Cc1c[nH]c2ccccc12)NC(=O)[C@H](CCC(N)=O)NC(C)=O)C(=O)N[C@@H](C)C(=O)N[C@@H](C)C(=O)N[C@@H](C)C(=O)N[C@@H](CC(C)C)C(=O)N[C@@H](CCCNC(=N)N)C(=O)N[C@]1(C)CCCCCCC=CCCC[C@@](C)(C(=O)N[C@@H](Cc2ccc(O)cc2)C(=O)N[C@@H](Cc2ccc(O)cc2)C(=O)N[C@@H](C)C(N)=O)NC(=O)[C@H](CC(N)=O)NC(=O)[C@H](Cc2ccccc2)NC(=O)[C@H](C)NC(=O)[C@H](CC(=O)O)NC(=O)CNC(=O)[C@H]([C@@H](C)CC)NC1=O [compound 1721] (Ac-QWIAAALR[R8]IGDAFN[S5]YYA-NH2; staple 9-16),8.32

# Further lines, results first:
row,pKi,SMILES
1,8.32,CC[C@H](C)[C@H](NC(C)=O)C(=O)N[C@@H](Cc1c[nH]c2ccccc12)C(=O)N[C@H](C(=O)N[C@@H](C)C(=O)N[C@@H](CCC(N)=O)C(=O)N[C@@H](C)C(=O)N[C@@H](CC(C)C)C(=O)N[C@@H](CCCNC(=N)N)C(=O)N[C@]1(C)CCCCCCC=CCCC[C@@](C)(C(=O)N[C@@H](Cc2ccc(O)cc2)C(=O)N[C@@H](Cc2ccc(F)cc2)C(=O)N[C@@H](C)C(N)=O)NC(=O)[C@H](CC(N)=O)NC(=O)[C@H](Cc2ccccc2)NC(=O)[C@H](C)NC(=O)[C@H](CC(=O)O)NC(=O)CNC(=O)[C@H]([C@@H](C)CC)NC1=O)[C@@H](C)CC [compound 1710] (Ac-IWIAQALR[R8]IGDAFN[S5]Y[Phe(4-F)]A-NH2; staple 9-16)
2,8.66,CC[C@H](C)[C@H](NC(=O)[C@H](Cc1c[nH]c2ccccc12)NC(=O)[C@H](CCC(=O)O)NC(C)=O)C(=O)N[C@@H](C)C(=O)N[C@@H](C)C(=O)N[C@@H](C)C(=O)N[C@@H](CC(C)C)C(=O)N[C@@H](CCCNC(=N)N)C(=O)N[C@]1(C)CCCCCCC=CCCC[C@@](C)(C(=O)N[C@@H](Cc2ccc(O)cc2)C(=O)N[C@@H](Cc2ccc(O)cc2)C(=O)N[C@@H](C)C(N)=O)NC(=O)[C@H](CC(N)=O)NC(=O)[C@H](Cc2ccccc2)NC(=O)[C@H](C)NC(=O)[C@H](CC(=O)O)NC(=O)CNC(=O)[C@H]([C@@H](C)CC)NC1=O [compound 1716] (Ac-EWIAAALR[R8]IGDAFN[S5]YYA-NH2; staple 9-16)
3,8.41,CC[C@H](C)[C@H](NC(=O)[C@H](Cc1c[nH]c2ccccc12)NC(=O)[C@H](CCCCN)NC(C)=O)C(=O)N[C@@H](C)C(=O)N[C@@H](C)C(=O)N[C@@H](C)C(=O)N[C@@H](CC(C)C)C(=O)N[C@@H](CCCNC(=N)N)C(=O)N[C@]1(C)CCCCCCC=CCCC[C@@](C)(C(=O)N[C@@H](Cc2ccc(O)cc2)C(=O)N[C@@H](Cc2ccc(O)cc2)C(=O)N[C@@H](C)C(N)=O)NC(=O)[C@H](CC(N)=O)NC(=O)[C@H](Cc2ccccc2)NC(=O)[C@H](C)NC(=O)[C@H](CC(=O)O)NC(=O)CNC(=O)[C@H]([C@@H](C)CC)NC1=O [compound 1718] (Ac-KWIAAALR[R8]IGDAFN[S5]YYA-NH2; staple 9-16)
4,8.44,CC[C@H](C)[C@H](NC(=O)[C@H](Cc1c[nH]c2ccccc12)NC(=O)[C@H](Cc1c[nH]cn1)NC(C)=O)C(=O)N[C@@H](C)C(=O)N[C@@H](C)C(=O)N[C@@H](C)C(=O)N[C@@H](CC(C)C)C(=O)N[C@@H](CCCNC(=N)N)C(=O)N[C@]1(C)CCCCCCC=CCCC[C@@](C)(C(=O)N[C@@H](Cc2ccc(O)cc2)C(=O)N[C@@H](Cc2ccc(O)cc2)C(=O)N[C@@H](C)C(N)=O)NC(=O)[C@H](CC(N)=O)NC(=O)[C@H](Cc2ccccc2)NC(=O)[C@H](C)NC(=O)[C@H](CC(=O)O)NC(=O)CNC(=O)[C@H]([C@@H](C)CC)NC1=O [compound 1719] (Ac-HWIAAALR[R8]IGDAFN[S5]YYA-NH2; staple 9-16)
5,8.41,CC[C@H](C)[C@H](NC(=O)[C@H](Cc1c[nH]c2ccccc12)NC(=O)[C@H](CO)NC(C)=O)C(=O)N[C@@H](C)C(=O)N[C@@H](C)C(=O)N[C@@H](C)C(=O)N[C@@H](CC(C)C)C(=O)N[C@@H](CCCNC(=N)N)C(=O)N[C@]1(C)CCCCCCC=CCCC[C@@](C)(C(=O)N[C@@H](Cc2ccc(O)cc2)C(=O)N[C@@H](Cc2ccc(O)cc2)C(=O)N[C@@H](C)C(N)=O)NC(=O)[C@H](CC(N)=O)NC(=O)[C@H](Cc2ccccc2)NC(=O)[C@H](C)NC(=O)[C@H](CC(=O)O)NC(=O)CNC(=O)[C@H]([C@@H](C)CC)NC1=O [compound 1720] (Ac-SWIAAALR[R8]IGDAFN[S5]YYA-NH2; staple 9-16)
